Our source for the IC50 values is patent US12023319B2, “Carboxylic acid aromatic amides” (priority 2016, dated 2024).

The target in test [1] is T1, human Bradykinin B1 receptor (Homo sapiens, UniProt P46663).
T1 construct: host or cells: CHO-K1
T1 sequence (P46663 1-353): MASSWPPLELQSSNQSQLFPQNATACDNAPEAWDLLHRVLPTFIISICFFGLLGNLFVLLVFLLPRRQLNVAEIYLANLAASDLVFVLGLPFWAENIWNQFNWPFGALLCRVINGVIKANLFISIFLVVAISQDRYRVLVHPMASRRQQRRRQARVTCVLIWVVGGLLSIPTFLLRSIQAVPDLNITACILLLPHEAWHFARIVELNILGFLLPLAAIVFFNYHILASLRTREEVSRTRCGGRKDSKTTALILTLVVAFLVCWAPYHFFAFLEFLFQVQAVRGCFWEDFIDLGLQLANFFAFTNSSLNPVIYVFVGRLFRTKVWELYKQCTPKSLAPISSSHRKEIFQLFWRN
Put plainly: Calcium flux assay (FLIPR), CHO-K1 cells expressing human Bradykinin B1 receptor, absence of 0.1% BSA (hB1 free IC50). The settings on record: absence of 0.1% BSA in assay buffer. Type of test: cell-based. In outline:
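Peak FLIPR fluorescence (538 nm) after B1 agonist peptide addition gave IC50s, scaled between DMSO and full block by 20 µM Lys-(Des-Arg-Leu)-Bradykinin. Compounds were preincubated 30 min at 28° C with calcium-dye-loaded CHO-K1 cells expressing human B1, at 8 concentrations in triplicate, 1% DMSO final.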

Test [2] concerns the target T2, native human Bradykinin B1 receptor (Homo sapiens, UniProt P46663).
T2 construct: which express native human Bradykinin B1 receptor after induction with human IL-1beta; Coriell Institute; host or cells: IMR-90 human foetal lung fibroblasts, induced with human IL-1beta
T2 sequence (P46663 1-353): T1 sequence (P46663 1-353)
Put plainly: Calcium flux assay (FLIPR) with IMR-90 human fibroblasts expressing Bradykinin B1 receptor after IL-1beta induction (hB1 IMR-90). In kind it is cell-based. The settings on record: IMR-90 human fibroblasts after IL-1beta induction, read-out: hB1 IMR90 IC50. Here is the method:
Calcium Flux Assay (FLIPR) with Human Fibroblasts Expressing Bradykinin B1 Receptor (hB1 IMR-90)
The Calcium flux Assay was carried out utilising IMR-90 human foetal lung fibroblasts (American Type Culture Collection, Rockville, MD; and Coriell Institute, Camden, New Jersey), which express native human Bradykinin B1 receptor after induction with human IL-1beta.
The fibroblasts were cultured in complete growth media comprised of Dulbecco's modified Eagle's medium (DMEM; Sigma) containing 10% foetal bovine serum, 4 mM L-glutamine, and 1% nonessential amino acids. The cells were maintained in a humidified atmosphere with 5% CO2 at 37° C. and were sub-cultured at a ratio of 1:3, every other day.
For the assay, IMR-90 fibroblasts were harvested using TrypLE Express (GIBCO/Invitrogen) and seeded into 384-well plates (Corning Cellbinding Surface, Cat. 3683) at a density of 15000 cells/well. The following day, cells were treated with 0.35 ng/mL human IL-1beta in 10% FBS/MEM for 3 h to up-regulate Bradykinin B1 receptor. Induced cells were loaded with fluorescent calcium indicator by incubation with 2.5 μM Fluo-4/AM (Invitrogen) at 37° C., 5% CO2 for 2 h in the presence of 2.5 mM probenecid in 1% FBS/MEM. […] Compound examples were assayed at 8 concentrations in triplicate. […] A peptide antagonist Lys-(Des-Arg-Leu)-Bradykinin (Bachem, Brackley) at 20 µM was used to determine the full inhibition as control. IC50 values were determined by the same way described for the FLI PR assay with recombinant cells.
(In general: A change in cytosolic calcium serves as a functional read-out for many receptors and channels.)

The structures appear in SMILES notation.

The term IC50 denotes the concentration at which inhibition is half-maximal. As for `O=C(O)c1cc(NC(=O)C2(c3ccc(F)cc3F)CC2)cc(F)c1-c1cnn(C2CCC2)c1` [Example 40, 2-(1-Cyclobutyl-1H-pyrazol-4-yl)-5-({[1-(2,4-difluorophenyl)cyclopropyl]carbonyl}amino)-3-fluorobenzoic acid], the IC50 came out at 16 nM in test [1] and 11 nM in test [2].

On to `O=C(O)c1cc(NC(=O)C2(c3ccc(OC(F)(F)F)cc3F)CC2)ccc1-c1ccc(C(F)(F)F)nc1` [Example 7, 5-[({1-[2-Fluoro-4-(trifluoromethoxy)phenyl]cyclopropyl}carbonyl)amino]-2-[6-(trifluoromethyl)pyridin-3-yl]benzoic acid], for which the IC50 in test [1] was 200 nM; in test [2], 1100 nM.

Turning to `CCC(F)(F)c1ccc(-c2c(F)cc(NC(=O)C3(c4ccc(OC(F)(F)F)cc4F)CC3)cc2C(=O)O)cn1` [Example 97, 2-[6-(1,1-Difluoropropyl)pyridin-3-yl]-3-fluoro-5-[({1-[2-fluoro-4-(trifluoromethoxy)phenyl]cyclopropyl}carbonyl)amino]benzoic acid], the IC50 was found to be 10 nM in test [1] and 25 nM in test [2].

Take `O=C(O)c1cc(NC(=O)C2(c3ccc(OC(F)(F)F)cc3F)CC2)ccc1-c1cnn(C2CCC2)c1` [Example 51, 2-(1-Cyclobutyl-1H-pyrazol-4-yl)-5-[({1-[2-fluoro-4-(trifluoromethoxy)phenyl]cyclopropyl}carbonyl)amino]benzoic acid]: the IC50 in test [1] amounted to 17 nM; in test [2], 19 nM.

Regarding `O=C(O)c1cc(NC(=O)C2(c3cc(Cl)ccc3F)CC2)ccc1-c1cnn(C2CCC2)c1` [Example 54, 5-({[1-(5-Chloro-2-fluorophenyl)cyclopropyl]carbonyl}amino)-2-(1-cyclobutyl-1H-pyrazol-4-yl)benzoic acid], the IC50 in test [1] came to 26 nM; in test [2], 22 nM.

On to `CCC(F)(F)c1ccc(-c2ccc(NC(=O)C3(c4ccc(F)c(F)c4)CC3)cc2C(=O)O)cn1` [Example 20, 5-({[1-(3,4-Difluorophenyl)cyclopropyl]carbonyl}amino)-2-[6-(1,1-difluoropropyl)pyridin-3-yl]benzoic acid], for which the values for the IC50 in test [1] and in test [2] were 2500 nM and 1700 nM, respectively.

Regarding `Cc1cc(NC(=O)C2(c3ccc(OC(F)(F)F)cc3F)CC2)cc(C(=O)O)c1-c1cnn(C2CCC2)c1` [Example 108, 2-(1-Cyclobutyl-1H-pyrazol-4-yl)-5-[({1-[2-fluoro-4-(trifluoromethoxy)phenyl]cyclopropyl}carbonyl)amino]-3-methylbenzoic acid], the IC50 came out at 14 nM in test [1] and 13 nM in test [2].

Consider `CC(C)Cn1cc(-c2ccc(NC(=O)C3(c4ccc(OC(F)(F)F)cc4F)CC3)cc2C(=O)O)cn1` [Example 75, 5-[({1-[2-Fluoro-4-(trifluoromethoxy)phenyl]cyclopropyl}carbonyl)amino]-2-[1-(2-methylpropyl)-1H-pyrazol-4-yl]benzoic acid], for which the IC50 in test [1] was determined as 11 nM; in test [2] it was 18 nM.

Take `CC(C)(C)c1cnn(-c2ccc(NC(=O)C3(c4ccc(OC(F)(F)F)cc4F)CC3)cc2C(=O)O)c1` [Example 13, 2-(4-tert-Butyl-1H-pyrazol-1-yl)-5-[({1-[2-fluoro-4-(trifluoromethoxy)phenyl]cyclopropyl}carbonyl)amino]benzoic acid]: the IC50 in test [1] was found to be 110 nM; in test [2] it was 310 nM.

`CCC(F)(F)c1ccc(-c2c(Cl)cc(NC(=O)C3(c4ccc(C(F)(F)F)cc4F)CC3)cc2C(=O)O)cn1` [Example 105, 3-Chloro-2-[6-(1,1-difluoropropyl)pyridin-3-yl]-5-[({1-[2-fluoro-4-(trifluoromethyl)phenyl]cyclopropyl}carbonyl)amino]benzoic acid]: the figures for the IC50 in test [1] and in test [2] were 17 nM and 74 nM, respectively.

Regarding `O=C(O)c1cc(NC(=O)C2(c3ccc(Cl)cc3F)CC2)ccc1-c1cnn(C2CCC2)c1` [Example 53, 5-({[1-(4-Chloro-2-fluorophenyl)cyclopropyl]carbonyl}amino)-2-(1-cyclobutyl-1H-pyrazol-4-yl)benzoic acid], the values for the IC50 in test [1] and in test [2] were 32 nM and 15 nM, respectively.

For `CCC(F)(F)c1ccc(-c2c(F)cc(NC(=O)C3(c4ccc(C(F)(F)F)cc4F)CC3)cc2C(=O)O)cn1` [Example 96, 2-[6-(1,1-Difluoropropyl)pyridin-3-yl]-3-fluoro-5-[({1-[2-fluoro-4-(trifluoromethyl)phenyl]cyclopropyl}carbonyl)amino]benzoic acid], the IC50 in test [1] came to 8.1 nM; in test [2], 25 nM.

Turning to `O=C(O)c1cc(NC(=O)C2(c3ccc(Cl)cc3F)CC2)cc(F)c1-c1cnn(C2CCC2)c1` [Example 41, 5-({[1-(4-Chloro-2-fluorophenyl)cyclopropyl]carbonyl}amino)-2-(1-cyclobutyl-1H-pyrazol-4-yl)-3-fluorobenzoic acid], the IC50 in test [1] was determined as 8.8 nM; in test [2], 3.7 nM.

For `O=C(O)c1cc(NC(=O)C2(c3ccc(OC(F)(F)F)cc3)CC2)cc(F)c1-c1cnn(C2CCC2)c1` [Example 37, 2-(1-Cyclobutyl-1H-pyrazol-4-yl)-3-fluoro-5-[({1-[4-(trifluoromethoxy)phenyl]cyclopropyl}carbonyl)amino]benzoic acid], the IC50 was determined as 20 nM in test [1] and 5.6 nM in test [2].

`CCOc1ccc(-c2ccc(NC(=O)C3(c4ccc(C(F)(F)F)cc4F)CC3)cc2C(=O)O)cn1` [Example 10, 2-(6-Ethoxypyridin-3-yl)-5-[({1-[2-fluoro-4-(trifluoromethyl)phenyl]cyclopropyl}carbonyl)amino]benzoic acid]: the IC50 in test [1] amounted to 18 nM; in test [2] it was 33 nM.

On to `CCC(F)(F)c1ccc(-c2ccc(NC(=O)C3(c4ccc(C)cc4F)CC3)cc2C(=O)O)cn1` [Example 26, 2-[6-(1,1-Difluoropropyl)pyridin-3-yl]-5-({[1-(2-fluoro-4-methylphenyl)cyclopropyl]carbonyl}amino)benzoic acid], for which the IC50 worked out at 140 nM in test [1] and 130 nM in test [2].

With `CC(C)(C)Cn1cc(-c2ccc(NC(=O)C3(c4ccc(OC(F)(F)F)cc4F)CC3)cc2C(=O)O)cn1` [Example 77, 2-[1-(2,2-Dimethylpropyl)-1H-pyrazol-4-yl]-5-[({1-[2-fluoro-4-(trifluoromethoxy)phenyl]cyclopropyl}carbonyl)amino]benzoic acid], the IC50 in test [1] was found to be 17 nM; in test [2], 13 nM.

For the compound `CCOc1ccc(-c2ccc(NC(=O)C3(c4ccc(OC(F)(F)F)cc4F)CC3)cc2C(=O)O)cn1` [Example 11, 2-(6-Ethoxypyridin-3-yl)-5-[({1-[2-fluoro-4-(trifluoromethoxy)phenyl]cyclopropyl}carbonyl)amino]benzoic acid], the figures for the IC50 in test [1] and in test [2] were 19 nM and 25 nM, respectively.

Regarding `O=C(O)c1cc(NC(=O)C2(c3ccc(C(F)(F)F)cc3F)CC2)cc(Cl)c1-c1cnn(C2CCC2)c1` [Example 100, 3-Chloro-2-(1-cyclobutyl-1H-pyrazol-4-yl)-5-[({1-[2-fluoro-4-(trifluoromethyl)phenyl]cyclopropyl}carbonyl)amino]benzoic acid], the figures for the IC50 in test [1] and in test [2] were 8.9 nM and 13 nM, respectively.

As for `Cc1ccc(-c2ccc(NC(=O)C3(c4ccc(C(F)(F)F)cc4F)CC3)cc2C(=O)O)cn1` [Example 19, 5-[({1-[2-Fluoro-4-(trifluoromethyl)phenyl]cyclopropyl}carbonyl)amino]-2-(6-methylpyridin-3-yl)benzoic acid], the half-maximal inhibitory concentration (IC50) in test [1] was found to be 67 nM; in test [2], 130 nM.

For the compound `CC(C)Cn1cc(-c2ccc(NC(=O)C3(c4ccc(C(F)(F)F)cc4F)CC3)cc2C(=O)O)cn1` [Example 74, 5-[({1-[2-Fluoro-4-(trifluoromethyl)phenyl]cyclopropyl}carbonyl)amino]-2-[1-(2-methylpropyl)-1H-pyrazol-4-yl]benzoic acid], the IC50 in test [1] stood at 17 nM; in test [2], 15 nM.
